# Experimental data published in patent US8183239B2, “Substituted piperazines and piperidines as modulators of the neuropeptide Y2 receptor” (Janssen Pharmaceutica NV, priority 2005, dated 2012).
# Target: T1, Y2 receptors (Homo sapiens, UniProt P49146)
# T1 construct: endogenous in cells; host or cells: KAN-Ts cells (membranes)
# T1 sequence (P49146 1-381): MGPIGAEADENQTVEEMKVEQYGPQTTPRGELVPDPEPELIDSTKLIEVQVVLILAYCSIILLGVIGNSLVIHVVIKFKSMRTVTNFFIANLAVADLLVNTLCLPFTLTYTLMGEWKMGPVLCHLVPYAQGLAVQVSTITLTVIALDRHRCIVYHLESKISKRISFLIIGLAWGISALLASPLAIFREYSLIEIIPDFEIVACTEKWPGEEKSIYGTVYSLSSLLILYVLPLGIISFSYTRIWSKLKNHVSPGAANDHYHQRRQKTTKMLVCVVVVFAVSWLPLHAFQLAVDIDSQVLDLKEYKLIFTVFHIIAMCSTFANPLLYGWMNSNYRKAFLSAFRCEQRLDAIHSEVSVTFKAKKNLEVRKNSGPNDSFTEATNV
# Experiment: Radioligand binding assay ([125I]PYY, KAN-Ts cell membranes)
# Conditions: Table 2, [125I]PYY 80 pM, average of results, read-out: IC50
# How it was run: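 IC50 values are means of three to eight experiments run in duplicate, fitted sigmoidally against specific binding (defined by […]). Competition used 80 pM [^125I]PYY for 1 h at room temperature on KAN-Ts membranes carrying native Y2, with filtration and scintillation counting.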
row,IC50,SMILES
1,350 nM,"CCC(CC)C(=O)Nc1ccc(N2CCN(C(C(=O)N3CCC(F)(F)C3)c3ccc(F)cc3)CC2)c(F)c1 (stereo not shown) [Example 198, N-(4-{4-[2-(3,3-Difluoro-pyrrolidin-1-yl)-1-(4-fluoro-phenyl)-2-oxo-ethyl]-piperazin-1-yl}-3-fluoro-phenyl)-2-ethyl-butyramide]"
2,148 nM,"CCC(CC)C(=O)Nc1ccc(N2CCN(C(C(=O)N3CCC(F)(F)C3)c3cccc(F)c3)CC2)c(F)c1 (stereo not shown) [Example 199, N-(4-{4-[2-(3,3-Difluoro-pyrrolidin-1-yl)-1-(3-fluoro-phenyl)-2-oxo-ethyl]-piperazin-1-yl}-3-fluoro-phenyl)-2-ethyl-butyramide]"
3,15 nM,"CCC(CC)C(=O)Nc1ccc(N2CCN(C(C(=O)N(CC)CC)c3cc(Br)ccc3F)CC2)c(F)c1 (stereo not shown) [Example 200, N-(4-{4-[(5-Bromo-2-fluoro-phenyl)-diethylcarbamoyl-methyl]-piperazin-1-yl}-3-fluoro-phenyl)-2-ethyl-butyramide]"
4,900 nM,"CCN(CC)C(=O)C(c1ccccc1)N1CCN(c2ccc(NC(=O)C3CCCC3)cn2)CC1 (stereo not shown) [Example 202, Cyclopentanecarboxylic acid {6-[4-(diethylcarbamoyl-phenyl-methyl)-piperazin-1-yl]-pyridin-3-yl}-amide]"
5,735 nM,"CCC(CC)C(=O)Nc1ccc(N2CCN(C(C(=O)N(CC)CC)c3ccccc3)CC2)nc1 (stereo not shown) [Example 203, N-{6-[4-(Diethylcarbamoyl-phenyl-methyl)-piperazin-1-yl]-pyridin-3-yl}-2-ethyl-butyramide]"
6,400 nM,"CCN(CC)C(=O)C(c1ccccc1)C1CCN(c2ccc(NC(=O)C3CCCC3)cn2)CC1 (stereo not shown) [Example 204, Cyclopentanecarboxylic acid [4-(diethylcarbamoyl-phenyl-methyl)-3,4,5,6-tetrahydro-2H-[1,2′]bipyridinyl-5′-yl]-amide]"
7,300 nM,"CCC(CC)C(=O)Nc1ccc(N2CCC(C(C(=O)N(CC)CC)c3ccccc3)CC2)nc1 (stereo not shown) [Example 205, N-[4-(Diethylcarbamoyl-phenyl-methyl)-3,4,5,6-tetrahydro-2H-[1,2′]bipyridinyl-5′-yl]-2-ethyl-butyramide]"
8,20 nM,"CCC(CC)C(=O)Nc1ccc(N2CCC(C(C(=O)N3CCC(F)CC3)c3ccccc3)CC2)c(F)c1 (stereo not shown) [Example 206, 2-Ethyl-N-(3-fluoro-4-{4-[2-(4-fluoro-piperidin-1-yl)-2-oxo-1-phenyl-ethyl]-piperidin-1-yl}-phenyl)-butyramide]"
9,70 nM,"CCC(CC)C(=O)Nc1ccc(N2CCC(C(C(=O)N3CC(F)(F)C3)c3ccccc3)CC2)c(F)c1 (stereo not shown) [Example 207, N-(4-{4-[2-(3,3-Difluoro-azetidin-1-yl)-2-oxo-1-phenyl-ethyl]-piperidin-1-yl}-3-fluoro-phenyl)-2-ethyl-butyramide]"
10,20 nM,"CCC(CC)C(=O)Nc1ccc(N2CCC(C(C(=O)N3CCC(F)(F)CC3)c3ccccc3)CC2)c(F)c1 (stereo not shown) [Example 208, N-(4-{4-[2-(4,4-Difluoro-piperidin-1-yl)-2-oxo-1-phenyl-ethyl]-piperidin-1-yl}-3-fluoro-phenyl)-2-ethyl-butyramide]"
11,100 nM,"CCC(CC)C(=O)Nc1ccc(N2CCC(C(C(=O)N3CCC3)c3ccccc3)CC2)c(F)c1 (stereo not shown) [Example 209, N-{4-[4-(2-Azetidin-1-yl-2-oxo-1-phenyl-ethyl)-piperidin-1-yl]-3-fluoro-phenyl}-2-ethyl-butyramide]"
12,25 nM,"CCC(CC)C(=O)Nc1ccc(N2CCC(C(C(=O)N3CCC(F)(F)C3)c3ccccc3)CC2)c(F)c1 (stereo not shown) [Example 210, N-(4-{4-[2-(3,3-Difluoro-pyrrolidin-1-yl)-2-oxo-1-phenyl-ethyl]-piperidin-1-yl}-3-fluoro-phenyl)-2-ethyl-butyramide]"
13,26 nM,"CCC(CC)C(=O)Nc1ccc(N2CCC(C(C(=O)N3CCCC3)c3ccccc3)CC2)c(F)c1 (stereo not shown) [Example 211, 2-Ethyl-N-{3-fluoro-4-[4-(2-oxo-1-phenyl-2-pyrrolidin-1-yl-ethyl)-piperidin-1-yl]-phenyl}-butyramide]"
14,55 nM,"CCC(CC)C(=O)Nc1ccc(N2CCC(C(C(=O)NC3CC3)c3ccccc3)CC2)c(F)c1 (stereo not shown) [Example 212, N-{4-[4-(Cyclopropylcarbamoyl-phenyl-methyl)-piperidin-1-yl]-3-fluoro-phenyl}-2-ethyl-butyramide]"
15,30 nM,"CCC(CC)C(=O)Nc1ccc(N2CCC(C(C(=O)Nc3nc(C)cs3)c3ccccc3)CC2)c(F)c1 (stereo not shown) [Example 213, 2-Ethyl-N-(3-fluoro-4-{4-[(4-methyl-thiazol-2-ylcarbamoyl)-phenyl-methyl]-piperidin-1-yl}-phenyl)-butyramide]"
16,40 nM,"CCC(CC)C(=O)Nc1ccc(N2CCC(C(C(=O)OC)c3ccccc3)CC2)c(F)c1 (stereo not shown) [Example 214, {1-[4-(2-Ethyl-butyrylamino)-2-fluoro-phenyl]-piperidin-4-yl}-phenyl-acetic acid methyl ester]"
17,100 nM,"CCC(CC)C(=O)Nc1ccc(N2CCC(C(C(=O)N3CCCCC3)c3ccccc3)CC2)c(F)c1 (stereo not shown) [Example 215, 2-Ethyl-N-{3-fluoro-4-[4-(2-oxo-1-phenyl-2-piperidin-1-yl-ethyl)-piperidin-1-yl]-phenyl}-butyramide]"
18,≥ 10000 nM,"CCC(CC)C(=O)Nc1ccc(N2CCC(C(C(=O)N3CCN(C)CC3)c3ccccc3)CC2)c(F)c1 (stereo not shown) [Example 216, 2-Ethyl-N-(3-fluoro-4-{4-[2-(4-methyl-piperazin-1-yl)-2-oxo-1-phenyl-ethyl]-piperidin-1-yl}-phenyl)-butyramide]"
19,10 nM,"CCC(CC)C(=O)Nc1ccc(N2CCC(C(C(=O)N(CC)CC)c3ccccc3)CC2)c(C#N)c1 (stereo not shown) [Example 217, N-{3-Cyano-4-[4-(diethylcarbamoyl-phenyl-methyl)-piperidin-1-yl]-phenyl}-2-ethyl-butyramide]"
20,37 nM,"CCC(CC)C(=O)Nc1ccc(N2CCC(C(C(=O)N(CC)CC)c3ccccc3)CC2)c(Br)c1 (stereo not shown) [Example 219, N-{3-Bromo-4-[4-(diethylcarbamoyl-phenyl-methyl)-piperidin-1-yl]-phenyl}-2-ethyl-butyramide]"
21,40 nM,"CCN(CC)C(=O)C(c1ccccc1)C1CCN(c2ccc(NC(=O)C3CCCC3)cc2F)CC1 (stereo not shown) [Example 220, Cyclopentanecarboxylic acid {4-[4-(diethylcarbamoyl-phenyl-methyl)-piperidin-1-yl]-3-fluoro-phenyl}-amide]"
22,48 nM,"CCN(CC)C(=O)C(c1ccccc1)N1CCN(c2ccc(NC(=O)C3CCCC3)cc2C#N)CC1 (stereo not shown) [Example 221, Cyclopentanecarboxylic acid {3-cyano-4-[4-(diethylcarbamoyl-phenyl-methyl)-piperazin-1-yl]-phenyl}-amide]"
23,63 nM,"CCN(CC)C(=O)C(c1ccccc1)C1CCN(c2ccc(NC(=O)C3CCC3)cc2F)CC1 (stereo not shown) [Example 222, Cyclobutanecarboxylic acid {4-[4-(diethylcarbamoyl-phenyl-methyl)-piperidin-1-yl]-3-fluoro-phenyl}-amide]"
24,80 nM,"CCC(CC)C(=O)Nc1ccc(N2CCN(C(C(=O)N(CC)CC)c3ccccc3)CC2)c(Br)c1 (stereo not shown) [Example 223, N-{3-Bromo-4-[4-(diethylcarbamoyl-phenyl-methyl)-piperazin-1-yl]-phenyl}-2-ethyl-butyramide]"

row,SMILES,IC50
1,"CCC(CC)C(=O)Nc1ccc(N2CCN(C(C(=O)N(CC)CC)c3ccc(F)c(F)c3)CC2)c(F)c1 (stereo not shown) [Example 201, N-(4-{4-[Diethylcarbamoyl-(3,4-difluoro-phenyl)-methyl]-piperazin-1-yl}-3-fluoro-phenyl)-2-ethyl-butyramide]",330 nM
